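Cultured in 96-well plates, cells were exposed to test compound for 48 hours across five concentrations. The concentration for full growth arrest is given as TGI.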
Assays:
Experiment in all cases: NCI-60 cell line screen, 48 h
CCRF-CEM leukemia = test system: CCRF-CEM leukemia
XF 498 CNS = test system: XF 498 CNS
U251 CNS = test system: U251 CNS
HCT-15 colon = test system: HCT-15 colon
SK-MEL-2 melanoma = test system: SK-MEL-2 melanoma
HT29 colon = test system: HT29 colon
MOLT-4 leukemia = test system: MOLT-4 leukemia
NCI-H522 lung = test system: NCI-H522 lung
HOP-92 NSCLC = test system: HOP-92 NSCLC
HCT-116 colon = test system: HCT-116 colon
786-0 renal = test system: 786-0 renal
MALME-3M melanoma = test system: MALME-3M melanoma
SF-295 CNS = test system: SF-295 CNS
A549 NSCLC = test system: A549 NSCLC
HCC-2998 colon = test system: HCC-2998 colon
SF-268 CNS = test system: SF-268 CNS
MCF7 breast = test system: MCF7 breast
MDA-MB-231 breast = test system: MDA-MB-231 breast
BT-549 breast = test system: BT-549 breast
HS 578T breast = test system: HS 578T breast

SMILES	TGI (CCRF-CEM leukemia) [µM]	TGI (XF 498 CNS) [µM]	TGI (U251 CNS) [µM]	TGI (HCT-15 colon) [µM]	TGI (SK-MEL-2 melanoma) [µM]	TGI (HT29 colon) [µM]	TGI (MOLT-4 leukemia) [µM]	TGI (NCI-H522 lung) [µM]	TGI (HOP-92 NSCLC) [µM]	TGI (HCT-116 colon) [µM]	TGI (786-0 renal) [µM]	TGI (MALME-3M melanoma) [µM]	TGI (SF-295 CNS) [µM]	TGI (A549 NSCLC) [µM]	TGI (HCC-2998 colon) [µM]	TGI (SF-268 CNS) [µM]	TGI (MCF7 breast) [µM]	TGI (MDA-MB-231 breast) [µM]	TGI (BT-549 breast) [µM]	TGI (HS 578T breast) [µM]
CC1=C(C(=O)O)N2C(=O)[C@@H](NC(=O)C(c3ccccc3)N3CSC(=S)N(C(C)C)C3)C2SC1 (some centres not stated)	> 100	> 100	> 100	> 100	> 100	> 100	> 100	66.6	> 100	> 100	> 100	> 100	> 100							
CC1=C(O)C(=O)C2C(=O)C1C(C)C2c1ccccc1 (configuration not stated)	> 100	> 100	> 100	> 100	> 100	> 100	> 100	> 100	> 100		> 100	> 100	> 100	> 100	> 100	> 100				
CC(C)(Oc1ccc2c(=O)cc(-c3ccc(Cl)cc3)oc2c1)C(=O)Nc1c(Cl)cccc1Cl	> 100	> 100	> 100	> 100	> 100	> 100	> 100	> 100	> 100	> 100	> 100	> 100	> 100	> 100		> 100				
CCCCN(C)CC(C(C)=O)C(c1ccccc1)c1c(O)c2ccccc2oc1=O (configuration not stated)	> 100	> 100	> 100	> 100	> 100	> 100	> 100	> 100		> 100	> 100	> 100	> 100	> 100		> 100				
O=C([O-])c1ccccc1Nc1ccccc1C(=O)[O-].[OH3+].[Zn+2]	61.6	57.3	33	> 100	40.4	> 100	99.8	18.2	45.7	> 78.2	57.7	50.5	32.2	> 100	> 100	40.2				
Cc1cc(-c2nc3ccc(F)cc3s2)ccc1NC(=O)C(N)CCCCN (configuration not stated)	7.68		5.01	23.6	23.1	13.1	7.94	17.3	27.7	10.3	8.76	34.1	19.3	5.54	21.4	19	4.46	23.1	28.3	27.1
CCN(CC)CCOCCOCC1(c2ccc(Cl)c(Cl)c2)CCCCC1	14.7		21.5	15.3	28.6	7.53	13.2	22.1	17.7	18.8	9.07	13.3	15.1	23.1	14.8	25.3	20.3	23	26	13.8
CSc1nc2nccnc2c(=O)[nH]1	> 100	> 100	> 100	> 100	> 100	> 100	> 100	> 100	> 100	> 100	> 100	> 100	> 100	> 100	> 100	> 100				
